This is an account of results in patent US12655101B2, “Small molecules with antibacterial activity” (NEW MEXICO TECH UNIVERSITY RESEARCH PARK CORPORATION, priority 2021, dated 2026).

Assay [1] deals with A. baumannii ATCC BAA-1797. The assay is described as follows: MIC on A. baumannii ATCC BAA-1797. The class given is cell-based. The protocol: A. baumannii: A. baumannii ATCC BAA-1797 was grown from a glycerol stock by placing a small volume of cells onto a MHA plate. The MHA plate was incubated overnight at 37° C. A single colony was used to inoculate MHB to obtain a bacterial broth suspension. The MHB broth suspension was grown at 37° C. on a rotary shaking incubator (100 rpm) for 12 hours. The bacterial cell concentration was adjusted to ˜5×10^5 CFU/mL in MHB or MHB+10%, 20% or 40% FBS using OD at 595 nm. 500 μL aliquots of the adjusted bacterial cell suspension were placed into borosilicate glass tubes. The cell suspensions were treated with a compound of interest, and the treatments were serially diluted two-fold. The culture tubes were incubated for 18 hours at 37° C. Efficacy was either assessed visually or by adding 10% v/v MTT (5 mg/mL stock) after the 18 hour incubation period. The cell suspensions were subsequently incubated for 10 minutes to allow the MTT reagent to carry out the colorimetric reaction. The OD was read at 595 nm.

The test system of another assay is MRSA ATCC BAA-44. In words: MIC on MRSA ATCC BAA-44. To be noted: for MIC: Staphylococcus aureus. The class given is cell-based, S. aureus. On the procedure:
MRSA BAA-44: MRSA ATCC BAA-44 was grown from a glycerol stock by placing a small volume of cells onto a Mueller-Hinton agar plate (MHA). The MHA plate was incubated overnight at 37° C. A single colony was used to inoculate Mueller-Hinton broth (MHB) to obtain a bacterial broth suspension. The MHB broth suspension was grown at 37° C. on a rotary shaking incubator (100 rpm) for 12 hours. The bacterial cell concentration was adjusted to ˜5×10^5 colony forming units per milliliter (CFU/mL) in MHB−/+10, 20, or 40% FBS using optical density (OD) at 595 nm. 500 μL aliquots of the adjusted bacterial cell suspension were placed into borosilicate glass tubes. The cell suspensions were treated with 100 μM compound of interest and serially diluted two-fold. The culture tubes were incubated for 18 hours at 37° C. Efficacy was either assessed visually or by adding 10% v/v MTT (5 mg/mL stock) after the 18 hour incubation period, where the cell suspensions were subsequently incubated for 10 minutes to allow the MTT reagent to carry out the colorimetric reaction.

[2] abbreviates: 0% FBS, read-out: MIC (μM) in MDR A. baumannii ATCC 1797 0% FBS.
Setting [3] is: 10% FBS, read-out: MIC (μM) in MRSA BAA-44 10% FBS.
Setting [4] is: Acinetobacter baumannii, ATCC 1797 / ATCC BAA-1797, 0% FBS, read-out: MIC (μM) in MDR A. baumannii ATCC 1797 0% FBS.
Where [5] appears, read: Acinetobacter baumannii, ATCC 1797 / ATCC BAA-1797, read-out: MIC (μM) in MDR A. baumannii ATCC 1797 40% FBS, 40% FBS.
Where [6] appears, read: no serum (note in the cell), read-out: MIC (μM) in MRSA BAA-44.
Setting [7] is: in FBS (note in the cell, percentage not given), read-out: MIC (μM) in MRSA BAA-44.
Setting [8] is: Acinetobacter baumannii, ATCC 1797 / ATCC BAA-1797, 10% FBS, read-out: MIC (μM) in MDR A. baumannii ATCC 1797 10% FBS.

Broadly, the MIC is the least concentration at which growth counts as inhibited.

SMILES strings stand for the structures. In brackets after ≈: the same amount, converted by molar mass. Like-named read-outs stand apart in the source and are kept apart here.

Consider `Fc1ccc(N/N=C/c2c[nH]c3cccc(OCc4ccccc4)c23)cc1` [Compound 31, (E)-4-(benzyloxy)-3-((2-(4-fluorophenyl)hydrazineylidene)methyl)-1H-indole], for which the figures for the MIC (in assay [1] (setting [2]); in the assay on MRSA ATCC BAA-44 (setting [3])) were 12.5 µM (≈ 4.49 µg/mL) and about 100 µM (≈ 35.9 µg/mL), respectively.

With `Brc1ccc(N/N=C/c2c[nH]c3cccc(OCc4ccccc4)c23)cc1` [Compound 34, (E)-4-(benzyloxy)-3-((2-(4-bromophenyl)hydrazineylidene)methyl)-1H-indole], the minimum inhibitory concentration (MIC) in assay [1] (setting [2]) amounted to 3 µM (≈ 1.26 µg/mL). Besides, the “MIC (μM) in MDR A. baumannii ATCC 1797 40% FBS” value in assay [1] (40% FBS) was determined as 50 µM (≈ 21 µg/mL). Further, in the assay with MRSA ATCC BAA-44 (no serum (note in the cell)), the “MIC (μM) in MRSA BAA-44” value was 25 (no serum) μM.

`NCCCC(=O)Oc1cccc2[nH]cc(/C=N/Nc3ccc(F)cc3)c12` [Compound 41, (E)-3-((2-(4-fluorophenyl)hydrazineylidene)methyl)-1H-indol-4-yl 4-aminobutanoate]: the MIC in assay [1] (setting [4]) is 12.5 µM (≈ 4.43 µg/mL); in assay [1] (setting [5]), over 100 µM. Also, the “MIC (μM) in MRSA BAA-44” value against MRSA ATCC BAA-44 (no serum (note in the cell)) is recorded as 100 no serum μM.

For `O=C(O)c1ccc(N/N=C/c2c[nH]c3ccccc23)cc1` [Compound 10, (E)-4-(2-((1H-indol-3-yl)methylene)hydrazineyl) benzoic acid], the values for the MIC (in assay [1] (setting [4]); in the assay with MRSA ATCC BAA-44 (setting [6])) were over 100 µM and 100 µM (≈ 27.9 µg/mL), respectively.

`Oc1cccc2[nH]cc(/C=N/Nc3ccc(Br)cc3)c12` [Compound 20, (E)-3-((2-(4-bromophenyl)hydrazineylidene)methyl)-1H-indol-4-ol]: the MIC in assay [1] (setting [4]) was 25 µM (≈ 8.25 µg/mL); in assay [1] (setting [5]), over 100 µM; with MRSA ATCC BAA-44 (setting [7]) it was over 100 µM; in the assay with MRSA ATCC BAA-44 (setting [6]), 25 µM (≈ 8.25 µg/mL).

In the case of `Clc1ccc(N/N=C/c2c[nH]c3ccccc23)cc1` [Compound 7, (E)-3-((2-(4-chlorophenyl)hydrazineylidene)methyl)-1H-indole], the minimal inhibitory concentration (MIC) in assay [1] (Acinetobacter baumannii, ATCC 1797 / ATCC BAA-1797, read-out: MIC (μM) in MDR A. baumannii ATCC 1797 0% FBS) was 5 µM (≈ 1.35 µg/mL); in assay [1] (Acinetobacter baumannii, ATCC 1797 / ATCC BAA-1797, read-out: MIC (μM) in MDR A. baumannii ATCC 1797 10% FBS) it was 25 µM (≈ 6.74 µg/mL); in assay [1] (Acinetobacter baumannii, ATCC 1797 / ATCC BAA-1797, read-out: MIC (μM) in MDR A. baumannii ATCC 1797 40% FBS), 50 µM (≈ 13.5 µg/mL); in the assay on MRSA ATCC BAA-44 (read-out: MIC (μM) in MRSA BAA-44 10% FBS), 100 µM (≈ 27 µg/mL).

In the case of `Cn1cc(/C=N/Nc2ccc(Br)cc2)c2c(OCc3ccccc3)cccc21` [Compound 45, (E)-4-(benzyloxy)-3-((2-(4-bromophenyl)hydrazineylidene)methyl)-1-methyl-1H-indole], the MIC in assay [1] (setting [4]) was 25 µM (≈ 10.9 µg/mL); in assay [1] (setting [5]), 50 µM (≈ 21.7 µg/mL); with MRSA ATCC BAA-44 (in 40% FBS (note in the cell), read-out: MIC (μM) in MRSA BAA-44), over 100 µM; with MRSA ATCC BAA-44 (setting [6]) it was 25 µM (≈ 10.9 µg/mL).

With `CCCCCC(=O)Oc1cccc2[nH]cc(/C=N/Nc3ccc(Br)cc3)c12` [Compound 22, (E)-3-((2-(4-bromophenyl)hydrazineylidene)methyl)-1H-indol-4-yl hexanoate], the MIC was 25 µM (≈ 10.7 µg/mL) in assay [1] (setting [4]), over 100 µM in assay [1] (setting [5]), over 100 µM with MRSA ATCC BAA-44 (setting [7]) and 25 µM (≈ 10.7 µg/mL) in the assay with MRSA ATCC BAA-44 (setting [6]).

As to `FC(F)(F)c1ccc(N/N=C/c2c[nH]c3cccc(OCc4ccccc4)c23)cc1` [Compound 37, (E)-4-(benzyloxy)-3-((2-(4-(trifluoromethyl)phenyl) hydrazineylidene)methyl)-1H-indole], the MIC in assay [1] (setting [4]) was over 100 µM; in assay [1] (setting [5]) it was over 100 µM; in the assay with MRSA ATCC BAA-44 (setting [6]), 12.5 µM (≈ 5.12 µg/mL).

Consider `O=S(=O)(N/N=C/c1c[nH]c2cccc(OCc3ccccc3)c12)c1ccccc1` [Compound 29, (E)-N′-((4-(benzloxy)-1H-indol-3-yl)methylene)benzenesulfonohydrazide], for which the MIC in assay [1] (setting [4]) and in assay [1] (setting [5]) was over 100 µM throughout.

In the case of `N=C(N)NCCC(N)C(=O)Nc1cccc2[nH]cc(/N=N/c3ccc(Br)cc3)c12` (centres unmarked) [Compound 6, (E)-2-amino-N-(3-((4-bromophenyl)diazenyl)-1H-indol-4-yl)-4-guanidinobutanamide], the MIC in assay [1] (setting [4]) was 25 µM (≈ 11.4 µg/mL); in assay [1] (setting [8]), over 100 µM; in assay [1] (setting [5]), 100 µM (≈ 45.7 µg/mL); with MRSA ATCC BAA-44 (setting [3]), 25 µM (≈ 11.4 µg/mL).

On to `Oc1cccc2[nH]cc(/C=N/Nc3ccc(F)cc3)c12` [Compound 21, (E)-3-((2-(4-fluorophenyl)hydrazineylidene)methyl)-1H-indol-4-ol], for which the MIC in assay [1] (setting [4]) was 25 µM (≈ 6.73 µg/mL); in assay [1] (setting [5]), over 100 µM; in the assay on MRSA ATCC BAA-44 (setting [7]) it was over 100 µM; with MRSA ATCC BAA-44 (setting [6]), 25 µM (≈ 6.73 µg/mL).

As for `N#Cc1ccc(N/N=C/c2c[nH]c3cccc(OCc4ccccc4)c23)cc1` [Compound 28], the MIC worked out at 25 µM (≈ 9.16 µg/mL) in assay [1] (setting [4]) and 100 µM (≈ 36.6 µg/mL) in assay [1] (setting [5]).

On to `C(=N\Nc1ncccn1)/c1c[nH]c2cccc(OCc3ccccc3)c12` [Compound 36, (E)-4-(benzyloxy)-3-((2-(pyrimidin-2-yl)hydrazineylidene)methyl)-1H-indole], for which the MIC (in assay [1] (setting [4]); in assay [1] (setting [5]); with MRSA ATCC BAA-44 (setting [6])) was over 100 µM in each case.

As to `Cn1cc(/C=N/Nc2ccc(F)cc2)c2c(OCc3ccccc3)cccc21` [Compound 44, (E)-4-(benzyloxy)-3-((2-(4-fluorophenyl)hydrazineylidene)methyl)-1-methyl-1H-indole], the MIC (in assay [1] (setting [4]); in the assay on MRSA ATCC BAA-44 (setting [3])) was under 100 µM throughout.

`Brc1ccc(N/N=C/c2c[nH]c3ccc(Br)cc23)cc1` [Compound 23, (E)-1-((5-bromo-1H-indol-3-yl)methylene)-2-(4-bromophenyl)hydrazin-1-ium chloride]: the minimum inhibitory concentration (MIC) in assay [1] (setting [4]) is 12.5 µM; in assay [1] (Acinetobacter baumannii, ATCC 1797 / ATCC BAA-1797, in human serum (note in the cell of the 40% FBS column), read-out: MIC (μM) in MDR A. baumannii ATCC 1797), under 100 µM.

Take `Brc1ccc(/N=N/c2c[nH]c3cccc(Nn4nnc5ccccc54)c23)cc1` [Compound 1, (E)-N-(3-((4-bromophenyl)diazenyl)-1H-indol-4-yl)-1H-benzo[d][1,2,3]triazol-1-amine]: in assay [1] (setting [4]), the MIC came to 50 µM (≈ 21.6 µg/mL).

Regarding `N=C(N)NCCC[C@H](N)C(=O)Oc1cccc2[nH]cc(/C=N/Nc3ccc(Cl)cc3)c12` [Compound 16, (E)-3-((2-(4-chlorophenyl)hydrazineylidene)methyl)-1H-indol-4-yl argininate], the MIC was 3 µM (≈ 1.33 µg/mL) in assay [1] (setting [4]), over 100 µM in assay [1] (setting [8]), over 100 µM in assay [1] (setting [5]) and over 100 µM with MRSA ATCC BAA-44 (setting [3]).

Consider `Oc1cccc2[nH]cc(/C=N/Nc3ccccc3)c12` [Compound 13, (E)-3-((2-phenylhydrazineylidene)methyl)-1H-indol-4-ol], for which the MIC is 5 µM (≈ 1.26 µg/mL) in assay [1] (setting [4]), 100 µM (≈ 25.1 µg/mL) in assay [1] (setting [8]), over 100 µM in assay [1] (setting [5]) and 100 µM (≈ 25.1 µg/mL) with MRSA ATCC BAA-44 (setting [3]).

`O=[N+]([O-])c1ccc2[nH]cc(/N=N/c3ccc(Br)cc3)c2c1` [Compound 3, (E)-3-((4-bromophenyl)diazenyl)-5-nitro-1H-indole]: the MIC in assay [1] (setting [4]) and in assay [1] (setting [8]) was over 100 µM in each case.

As for `NC(=O)CC(N)C(=O)Nc1cccc2[nH]cc(/N=N/c3ccc(Br)cc3)c12` (centres unmarked) [Compound 5, (E)-2-amino-N^1-(3-((4-bromophenyl)diazenyl)-1H-indol-4-yl)succinamide], the MIC in assay [1] (setting [4]) and in assay [1] (setting [8]) was over 100 µM each time.

As for `Clc1ccc(N/N=C/c2c[nH]c3cccc(OCc4ccccc4)c23)c(Cl)c1` [Compound 32, (E)-4-(benzyloxy)-3-((2-(2,4-dichlorophenyl)hydrazineylidene)methyl)-1H-indole], in assay [1] (setting [4]), the MIC is over 100 µM.

For `O=[N+]([O-])c1ccc(N/N=C/c2c[nH]c3ccccc23)cc1` [Compound 9, (E)-3-((2-(4-nitrophenyl)hydrazineylidene)methyl)-1H-indole], the MIC in assay [1] (setting [4]) was over 100 µM.

Take `CC(=O)n1cc(/C=N/Nc2ccc(Cl)cc2)c2ccccc21` [Compound 24, (E)-1-(3-((2-(4-chlorophenyl)hydrazineylidene)methyl)-1H-indol-1-yl)ethan-1-one]: the MIC in assay [1] (setting [4]) was under 100 µM; in assay [1] (setting [5]), over 100 µM.
